The text below walks through data of patent publication US8697636B2 (priority 2007, dated 2014).

One assay has as its system C. perfringens. Nature of the assay: microbe, parasite or virus in culture. The class given is cell-based. Particulars: Clostridium perfringens, read-out: minimum inhibitory concentration.
Assay [1] concerns pathogenic Clostridium sp. Particulars: cited from earlier work.

In brackets after ≈: the same amount, converted by molar mass.

In the case of `Cc1ncc([N+](=O)[O-])n1CCO` [metronidazole], the MIC in the assay on C. perfringens is 25 µg/mL (≈ 146 µM).
For ruminococcin A, the “activity against pathogenic Clostridium sp.” value in assay [1] was “active”.
